Tests used:
human AT1R = human AT1R (Homo sapiens (Human), UniProt P30556); assay: Counterscreen radioligand binding assay, displacement of 125I-[Sar1, Ile8]-Angiotensin II, hAT1R WT; conditions: for inhibition at 1 µM / inhibition at 10 µM: 125I-[Sar1, Ile8]-Ang II, semi-quantitative score; for inhibition at 1 µM: compound at 1 μM, read-out: % Displaced radioligand at 1 μM; for inhibition at 10 µM: compound at 10 μM, read-out: % Displaced radioligand at 10 μM; for IC50: HEK-293 cell membranes, read-out: Binding affinity On hAT1R IC50
How it was run: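 Compounds displaced 0.05 nM 125I-[Sar1, Ile8]-Ang II from human AT1R in HEK-293 membranes (1 h, 25° C; Tris/MgCl2/EDTA/BSA buffer, pH 7.4). Readout was filtration and scintillation counting, with non-specific binding set by 10 μM [Sar1]-Ang II. Values are % displacement at 1 μM and […], or IC50 from eight-point four-parameter fits.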

human AT2R fused to Cb23 = human AT2R fused to Cb23 (Homo sapiens, UniProt P50052); assay: Radioligand binding assay, displacement of 125I-[Sar1, Ile8]-Angiotensin II, hAT2R Cb23; conditions: displacement of 125I-[Sar1, Ile8]-Angiotensin II, human AT2R fused to Cb23, HEK-293 cell membrane preparations; read-out: Binding affinity on hAT2R_Cb23 IC50
How it was run: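 Membranes from HEK-293 cells expressing human AT2R fused to Cb23 were incubated with 0.05 nM 125I-[Sar1, Ile8]-Angiotensin II in 100 μL buffer (50 mM Tris, 5 mM MgCl2, 1 mM EDTA, 0.1% BSA, pH 7.4) for one hour at 25° C. Ligands were tested as eight-point dose-response curves in duplicate, with C21 and Angiotensin II as references.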

Sequence of human AT2R fused to Cb23 (P50052 whole entry, looked up, the tested form may be a part): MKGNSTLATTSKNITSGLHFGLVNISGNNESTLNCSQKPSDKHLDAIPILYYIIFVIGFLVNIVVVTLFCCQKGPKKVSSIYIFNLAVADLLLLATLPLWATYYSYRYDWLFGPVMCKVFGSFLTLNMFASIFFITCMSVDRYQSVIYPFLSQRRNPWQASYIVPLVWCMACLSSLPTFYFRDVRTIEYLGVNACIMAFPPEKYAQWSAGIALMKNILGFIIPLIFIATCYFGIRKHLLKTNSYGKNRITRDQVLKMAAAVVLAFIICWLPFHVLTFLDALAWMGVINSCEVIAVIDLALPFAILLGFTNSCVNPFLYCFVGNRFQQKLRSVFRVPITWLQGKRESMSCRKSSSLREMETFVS
Sequence of human AT1R (P30556 whole entry): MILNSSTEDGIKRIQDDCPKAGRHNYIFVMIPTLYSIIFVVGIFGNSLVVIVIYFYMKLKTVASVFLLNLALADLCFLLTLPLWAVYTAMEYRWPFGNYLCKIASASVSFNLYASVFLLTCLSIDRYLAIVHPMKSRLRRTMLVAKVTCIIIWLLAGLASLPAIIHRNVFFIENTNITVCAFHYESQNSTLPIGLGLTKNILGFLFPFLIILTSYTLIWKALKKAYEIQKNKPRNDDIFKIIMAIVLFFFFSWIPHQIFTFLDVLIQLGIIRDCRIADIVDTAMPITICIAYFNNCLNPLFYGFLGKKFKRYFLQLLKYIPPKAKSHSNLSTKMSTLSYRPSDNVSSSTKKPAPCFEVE

Compound	inhibition at 1 µM (human AT1R)	inhibition at 10 µM (human AT1R)	IC50 (human AT2R fused to Cb23)	IC50 (human AT1R)
CC(C)Cc1ccc(-c2nn[nH]n2)c(N2CCN(Cc3nc4ccccc4n(C)c3=O)CC2)c1 [Compound A-79, 3-[[4-[5-isobutyl-2-(2H-tetrazol-5-yl)-phenyl]piperazin-1-yl]methyl]-1-methyl-quinoxalin-2-one]	< 30%	< 30%	4.72 µM	
CC(C)Cc1cc(F)c(-c2nn[nH]n2)c(N2CCN(Cc3ncccc3F)CC2)c1 [Compound A-196, 1-[3-fluoro-5-isobutyl-2-(2H-tetrazol-5-yl)phen-yl]-4-[(3-fluoro-2-pyridyl)methyl]-piperazine]	< 30%	< 30%	0.631 µM	
CCS(=O)(=O)NC(=O)c1ccc(OCC(C)C)cc1N1CCN(Cc2nc3ccccc3s2)CC1 [Compound A-43, 2-[4-(1,3-benzothiazol-2-ylmethyl)piperazin-1-yl]-N-ethylsulfonyl-4-isobutoxy-benzamide]	< 30%	30 to 50%	4.38 µM	
Cc1nc(CN2CCN(c3cc(CC(C)C)ccc3-c3nn[nH]n3)CC2)no1 [Compound A-86, 3-[[4-[5-isobutyl-2-(2H-tetrazol-5-yl)phenyl]piperazin-1-yl]methyl]-5-methyl-1,2,4-oxadiazole]	< 30%	< 30%	24.9 µM	
COc1cccnc1CN1CCN(c2cc(CC(C)C)cc(F)c2-c2nn[nH]n2)CC1 [Compound A-198, 1-[3-fluoro-5-isobutyl-2-(2H-tetrazol-5-yl)phen-yl]-4-[(3-methoxy-2-pyridyl)meth-yl]piperazine]	< 30%	< 30%	1.82 µM	
CCCN(C(=O)c1cccs1)c1ccc2nc(CC)n(CC3CCN(c4ccccc4-c4nn[nH]n4)CC3)c(=O)c2c1 [Compound A-243, N-[2-ethyl-4-oxo-3-[[1-[2-(2H-tetrazol-5-yl)phen-yl]-4-piperidyl]-methyl]quinazolin-6-yl]-N-propyl-thiophene-2-carbox-amide]	< 30%	> 50%	0.159 µM	11.5 µM
CC(C)Cc1cc(F)c(-c2nn[nH]n2)c(N2CCN(Cc3ccc(C#N)cn3)CC2)c1 [Compound A-209, 6-[[4-[3-fluoro-5-isobutyl-2-(2H-tetrazol-5-yl)phen-yl]piperazin-1-yl]-methyl]pyridine-3-carbonitrile]	30 to 50%	> 50%	3.68 µM	6.74 µM
CC(C)Nc1ccc(-c2nn[nH]n2)c(N2CCN(Cc3nc4ccccc4s3)CC2)c1 [Compound A-60, 3-[4-(1,3-benzothiazol-2-ylmethyl)piperazin-1-yl]-N-isopropyl-4-(2H-tetrazol-5-yl)aniline]	< 30%	< 30%	3.46 µM	
CCOc1cc(-c2nn[nH]n2)c(N2CCN(Cc3nc4ccccc4s3)CC2)cc1OC(C)C [Compound A-123, 2-[[4-[4-ethoxy-5-isopropoxy-2-(2H-tetrazol-5-yl)phen-yl]piperazin-1-yl]-methyl]-1,3-benzo-thiazole]	< 30%	< 30%	4.88 µM	
CCc1nc2ccc(N(Cc3cccnc3)C(=O)c3cccs3)cc2c(=O)n1CC1CCN(c2ccccc2-c2nn[nH]n2)CC1 [Compound A-244, N-[2-ethyl-4-oxo-3-[[1-[2-(2H-tetrazol-5-yl)phenyl]-4-piperidyl]methyl]quinazolin-6-yl]-N-(3-pyridylmethyl)thiophene-2-carboxamide]	< 30%	> 50%	0.104 µM	6.62 µM
CCCCOC(=O)NS(=O)(=O)c1ccc(C)cc1N1CCN(Cc2nc3ccccc3n2C)CC1 [Compound A-11, butyl N-[4-methyl-2-[4-[(1-methylbenzimidazol-2-yl)methyl]piperazin-1-yl]phenyl]sulfonylcarbamate]	< 30%	< 30%	0.959 µM	37.7 µM
Cc1cnc(CN2CCN(c3c(-c4nn[nH]n4)ccc(CC(C)C)c3F)CC2)s1 [Compound A-219, 2-[[4-[2-fluoro-3-isobutyl-6-(2H-tetrazol-5-yl)phen-yl]piperazin-1-yl]-methyl]-5-methyl-thiazole]	< 30%	< 30%	0.681 µM	55.2 µM
COc1ccnc(CN2CCN(c3cc(CC(C)C)cc(F)c3-c3nn[nH]n3)CC2)c1C [Compound A-208, 1-[3-fluoro-5-isobutyl-2-(2H-tetrazol-5-yl)phen-yl]-4-[(4-methoxy-3-methyl-2-pyrid-yl)methyl]piper-azine]	< 30%	< 30%	1.92 µM	

More lines, in order of falling IC50 (human AT2R fused to Cb23), values ahead:

inhibition at 1 µM (human AT1R)	inhibition at 10 µM (human AT1R)	IC50 (human AT2R fused to Cb23)	IC50 (human AT1R)	Compound
< 30%	30 to 50%	8.98 µM	18.1 µM	COc1cc(F)c(-c2nn[nH]n2)c(N2CCN(Cc3nc4ccccc4s3)CC2)c1 [Compound A-116, 2-[[4-[3-fluoro-5-methoxy-2-(2H-tetrazol-5-yl)phen-yl]piperazin-1-yl]-methyl]-1,3-benzo-thiazole]
< 30%	< 30%	8.42 µM		CC(C)Cc1cc(N2CCN(Cc3nc4ccccc4c(=O)[nH]3)CC2)c(-c2nn[nH]n2)cc1F [Compound A-153, 2-[[4-[4-fluoro-5-isobutyl-2-(2H-tetrazol-5-yl)phen-yl]piperazin-1-yl]-methyl]-3H-quin-azolin-4-one]
< 30%	< 30%	4.94 µM		CC(C)Oc1cc(N2CCN(Cc3cccnn3)CC2)c(-c2nn[nH]n2)cc1C1CC1 [Compound A-160, 3-[[4-[4-cycloprop-yl-5-isopropoxy-2-(2H-tetrazol-5-yl)-phenyl]piperazin-1-yl]methyl]pyrid-azine]
< 30%	30 to 50%	4.77 µM	14.2 µM	CC(C)Cc1ccc(-c2nn[nH]n2)c(N2CCN(Cc3nncn3C)CC2)c1 [Compound A-94, 1-[5-isobutyl-2-(2H-tetrazol-5-yl)phenyl]-4-[(4-methyl-1,2,4-triazol-3-yl)methyl]piperazine]
< 30%	< 30%	2.02 µM		CC(C)Cc1ccc(-c2nn[nH]n2)c(C2CCN(Cc3cccnn3)CC2)c1 [Compound A-234, 3-[[4-[5-isobutyl-2-(2H-tetrazol-5-yl)-phenyl]-1-piperid-yl]methyl]pyrid-azine]
< 30%	< 30%	1.46 µM		CC(C)Oc1cc(C2CC2)c(-c2nn[nH]n2)c(N2CCN(Cc3cccnn3)CC2)c1 [Compound A-161, 3-[[4-[3-cycloprop-yl-5-isopropoxy-2-(2H-tetrazol-5-yl)-phenyl]piperazin-1-yl]methyl]pyrid-azine]
< 30%	< 30%	1.29 µM		CC(C)Cc1cc(F)c(-c2nn[nH]n2)c(N2CCN(Cc3ncc(F)cc3F)CC2)c1 [Compound A-211, 1-[(3,5-difluoro-2-pyridyl)methyl]-4-[3-fluoro-5-isobutyl-2-(2H-tetrazol-5-yl)phenyl]piperazine]
< 30%	< 30%	1 µM	41.5 µM	CC(C)Oc1cc(F)c(-c2nn[nH]n2)c(N2CCN(Cc3nc4ccccc4s3)CC2)c1 [Compound A-118, 2-[[4-[3-fluoro-5-isopropoxy-2-(2H-tetrazol-5-yl)phen-yl]piperazin-1-yl]-methyl]-1,3-benzo-thiazole]
< 30%	< 30%	0.537 µM		CC(C)Cc1cc(F)c(-c2nn[nH]n2)c(N2CCN(Cc3ccc(F)cn3)CC2)c1 [Compound A-195, 1-[3-fluoro-5-isobutyl-2-(2H-tetrazol-5-yl)phen-yl]-4-[(5-fluoro-2-pyridyl)methyl]-piperazine]
< 30%	< 30%	0.519 µM		CC(C)Cc1cc(F)c(-c2nn[nH]n2)c(N2CCN(Cc3ccc(Cl)cn3)CC2)c1 [Compound A-192, 1-[(5-chloro-2-pyridyl)methyl]-4-[3-fluoro-5-isobutyl-2-(2H-tetrazol-5-yl)phenyl]piperazine]
< 30%	< 30%	0.484 µM		CCS(=O)(=O)NC(=O)c1ccc(C(C)C)cc1N1CCN(Cc2nc3ccccc3s2)CC1 [Compound A-34, 2-[4-(1,3-benzo-thiazol-2-ylmethyl)-piperazin-1-yl]-N-ethylsulfonyl-4-iso-propyl-benzamide]
< 30%	< 30%	0.434 µM		CC(C)Cc1ccc(-c2nn[nH]n2)c(N2CCN(C(C)c3cccnn3)CC2)c1 (centres unmarked) [Compound A-212, 3-[1-[4-[5-isobutyl-2-(2H-tetrazol-5-yl)-phenyl]piperazin-1-yl]ethyl]pyrid-azine]
< 30%	< 30%	0.016 µM		CC(C)Cc1cc(C2CC2)c(-c2nn[nH]n2)c(N2CCN(Cc3nc4ccccc4s3)CC2)c1 [Compound A-137, 2-[[4-[3-cycloprop-yl-5-isobutyl-2-(2H-tetrazol-5-yl)-phenyl]piperazin-1-yl]methyl]-1,3-benzothiazole]
